Measurements: US8809306B2, “Combination andolast/glucocorticoids” (Rottapharm S.p.A., priority 2006, dated 2014)

Experiments:
[1] = system: airway hyperresponsiveness induced by Sephadex G100 particles; test: Sephadex G100-induced lung hyperresponsiveness in rats (bronchoconstriction by Ach); details: G-100 rats
[2] = system: human B lymphocytes from allergic donors; details: cited from earlier work
[3] = system: T lymphocytes (Th2) production of IL-5; details: preliminary in-vivo data, atopic asthmatic patients; cited from earlier work
[4] = system: airway hyperresponsiveness; details: inhalation, 2 to 20 mg, mild-moderate asthmatic patients; AMP, exercise, UNDW, CAH; cited from earlier work
[5] = system: eosinophils in the bronchoalveolar lavage (BAL) fluids; test: Sephadex-induced eosinophilia: eosinophil counts in the BAL fluid
[6] = system: airway response following specific antigen challenge; details: asthmatic patients; cited from earlier work

O=C(Nc1ccc(-c2nnn[nH]2)cc1)c1ccc(-c2nnn[nH]2)cc1 [Andolast, N-4-(5-tetrazolyl)-phenyl-4-(5-tetrazolyl)-benzamide]
Protective Effect (%) ([1]; Andolast 3 mg/kg i.m., calculated from Ach ED50): 33.3%
Ach ED50 ([1]; Andolast 3 mg/kg i.m., dose of Ach i.v. producing 50% response): 0.20 mg/kg
effect on IL-4 dependent IgE synthesis [2]: potent inhibitory effect
effect on Th2 production of IL-5 [3]: inhibitory effect
airway hyperresponsiveness to specific and non-specific bronchostimulation challenges [4]: prevents in a dose-dependent fashion
counts of eosinophils in the BAL fluid ([5]; Andolast 3 mg/kg, Sephadex control 2.6×10^6): 1.75×10^6
early and late airway response following specific antigen challenge [6]: completely prevents

C[C@]12C=CC(=O)C=C1CC[C@@H]1[C@@H]2[C@@H](O)C[C@@]2(C)[C@H]1CC[C@]2(O)C(=O)CO [Prednisolone]
Protective Effect (%) ([1]; Prednisolone 1 mg/kg orally): 11.1%
Protective Effect (%) ([1]; Prednisolone 10 mg/kg orally): 88.8%
counts of eosinophils in the BAL fluid ([5]; Prednisolone 1 mg/kg, Sephadex control 2.6×10^6, normal rats about 1×10^4): 2×10^6
eosinophilia in the BAL fluids, in words ([5]; Prednisolone 10 mg/kg): totally suppressed
